{"source": "patent US20240325398A1", "about": "“COMBINATION THERAPIES” (Infinity Pharmaceuticals, Inc., priority 2014, published 2024)", "test_in_all_cases": "Combination study, ATPLite 72 h, dose matrix (Synergy Score, CI50)", "key": {"WSU-NHL": {"system": "WSU-NHL"}, "KARPAS-422": {"system": "KARPAS-422"}, "DOHH-2": {"system": "DOHH-2", "protocol": "(§1) Cells are thawed from a liquid nitrogen preserved state. Once cells have been expanded and divide at their expected doubling times, screening begins. Cells are seeded in growth media in either black 1536-well or 384-well tissue culture treated plates. Cells are then equilibrated in assay plates via centrifugation and placed in incubators attached to the Dosing Modules at 37° C. for 24 hours before treatment. […] These Tzero (To) plates are read using ultra-sensitive luminescence on Envision plate readers (Perkin Elmer). Treated assay plates are incubated with compound for 72 hours. After 72 hours, plates are developed for endpoint analysis using ATPLite. All data points are collected via automated processes, quality controlled and analyzed using Zalicus software.\nThe measure of effect in the experiment can be the inhibition of cellular response relative to the untreated level (vehicle alone). […] The inhibition ranges from 0% at the untreated level to 100% when T=0. Inhibition levels are negative for agents that actually increase levels.\n(§2) Growth Inhibition (GI) is used as a measure of cell viability. […] A GI reading of 100% represents complete growth inhibition—T72 compound-treated and T0 vehicle signals are matched. […] A GI reading of 200% represents complete death of all cells in the culture well. Compounds reaching an activity plateau of GI 200% are considered cytotoxic. GI is calculated by applying the following test and equation:\n(§3) Combination analysis data were collected in a 6×6 dose matrix. Synergy is calculated by comparing a combination's response to those of its single compound, against the drug-with-itself dose-additive reference model. Deviations from dose additivity may be assessed visually on an isobologram or numerically with a Combination Index (CI). […] Additive effect is CI=1.0. […] Antagonistic effect is CI>1.0.\n(§4) To measure combination effects in excess of Loewe additivity, a scalar measure to characterize the strength of synergistic interaction termed the Synergy Score is devised. The Synergy Score is calculated as:\n(§5) The fractional inhibition for each component agent and combination point in the matrix is calculated relative to the median of all vehicle-treated control wells. The Synergy Score equation integrates the experimentally-observed activity volume at each point in the matrix in excess of a model surface numerically derived from the activity of the component agents using the Loewe model for additivity. Additional terms in the Synergy Score equation (above) are used to normalize for various dilution factors used for individual agents and to allow for comparison of synergy scores across an entire experiment. The inclusion of positive inhibition gating or an Idata multiplier removes noise near the zero effect level, and biases results for synergistic interactions at that occur at high activity levels.\nLoewe Volume (Loewe Vol) is used to assess the overall magnitude of the combination interaction in excess of the Loewe additivity model. Loewe Volume is particularly useful when distinguishing synergistic increases in a phenotypic activity (positive Loewe Volume) versus synergistic antagonisms (negative Loewe Volume). […] This model defines additivity as a non-synergistic combination interaction where the combination dose matrix surface should be indistinguishable from either drug crossed with itself. The calculation for Loewe additivity is:"}, "SU-DHL-10-epst": {"system": "SU-DHL-10-epst"}, "Farage": {"system": "Farage", "settings": "Farage"}, "RL": {"system": "RL", "protocol": "as §1\nwhere T is treated cell count and V is untreated (vehicle) cell count (at 72 hours). I ranges from 0% (when T=V) to 100% (when T=0). […] The measure of effect in the experiment can be the inhibition of cellular response relative to the untreated level (vehicle alone). […] The inhibition ranges from 0% at the untreated level to 100% when T=0. Inhibition levels are negative for agents that actually increase levels. Other effect measures, such as an activity ratio r=T/V may be more appropriate for some assays. When activity ratios (e.g, fold increase over stimulated control) are being used, the effect can be measured using an induction 1=ln(T/V). With this definition, all effect expressions are the same as for inhibition.\nas §2, §3, §4, §5\nLoewe Volume (Loewe Vol) is used to assess the overall magnitude of the combination interaction in excess of the Loewe additivity model. Loewe Volume is particularly useful when distinguishing synergistic increases in a phenotypic activity (positive Loewe Volume) versus synergistic antagonisms (negative Loewe Volume). […] This model defines additivity as a non-synergistic combination interaction where the combination dose matrix surface should be indistinguishable from either drug crossed with itself."}}, "data": [{"smiles": "C[C@H](Nc1ncnc2[nH]cnc12)c1cc2cccc(Cl)c2c(=O)n1-c1ccccc1", "note": "[Compound 1, (S)-3-(1-((9H-purin-6-yl)amino)ethyl)-8-chloro-2-phenylisoquinolin-1(2H)-one]", "values": [{"measurement": "Synergy Score inhibition", "setting": "WSU-NHL; combination with LEE011", "result": "A2 (A2=1 to <3)"}, {"measurement": "CI50 growth inhibition", "setting": "WSU-NHL; combination with PCI-32765", "result": "S (S=0.01 to <0.5)"}, {"measurement": "CI50 inhibition", "setting": "WSU-NHL; combination with PCI-32765", "result": "S (S=0.01 to <0.5)"}, {"measurement": "Synergy Score growth inhibition", "setting": "WSU-NHL; combination with PCI-32765", "result": "A3 (A3=>3)"}, {"measurement": "Synergy Score inhibition", "setting": "WSU-NHL; combination with PCI-32765", "result": "A3 (A3=>3)"}, {"measurement": "CI50 growth inhibition", "setting": "WSU-NHL; combination with PD-0332991", "result": "S (S=0.01 to <0.5)"}, {"measurement": "CI50 inhibition", "setting": "WSU-NHL; combination with PD-0332991", "result": "S (S=0.01 to <0.5)"}, {"measurement": "CI50 growth inhibition", "setting": "KARPAS-422; combination with Dexamethasone", "result": "U (U=0.7 to <1)"}, {"measurement": "CI50 inhibition", "setting": "KARPAS-422; combination with Dexamethasone", "result": "T (T=0.5 to <0.7)"}, {"measurement": "Synergy Score growth inhibition", "setting": "KARPAS-422; combination with Dexamethasone", "result": "A3 (A3=>3)"}, {"measurement": "Synergy Score inhibition", "setting": "KARPAS-422; combination with Dexamethasone", "result": "A2 (A2=1 to <3)"}, {"measurement": "CI50 growth inhibition", "setting": "KARPAS-422; combination with LEE011", "result": "S (S=0.01 to <0.5)"}, {"measurement": "CI50 inhibition", "setting": "KARPAS-422; combination with LEE011", "result": "S (S=0.01 to <0.5)"}, {"measurement": "Synergy Score growth inhibition", "setting": "KARPAS-422; combination with LEE011", "result": "A2 (A2=1 to <3)"}, {"measurement": "Synergy Score inhibition", "setting": "KARPAS-422; combination with LEE011", "result": "A2 (A2=1 to <3)"}, {"measurement": "CI50 growth inhibition", "setting": "KARPAS-422; combination with PCI-32765", "result": "S (S=0.01 to <0.5)"}, {"measurement": "CI50 inhibition", "setting": "KARPAS-422; combination with PCI-32765", "result": "S (S=0.01 to <0.5)"}, {"measurement": "Synergy Score growth inhibition", "setting": "KARPAS-422; combination with PCI-32765", "result": "A3 (A3=>3)"}, {"measurement": "Synergy Score inhibition", "setting": "KARPAS-422; combination with PCI-32765", "result": "A2 (A2=1 to <3)"}, {"measurement": "CI50 growth inhibition", "setting": "KARPAS-422; combination with PD-0332991", "result": "S (S=0.01 to <0.5)"}, {"measurement": "CI50 inhibition", "setting": "KARPAS-422; combination with PD-0332991", "result": "S (S=0.01 to <0.5)"}, {"measurement": "Synergy Score growth inhibition", "setting": "KARPAS-422; combination with PD-0332991", "result": "A2 (A2=1 to <3)"}, {"measurement": "Synergy Score inhibition", "setting": "KARPAS-422; combination with PD-0332991", "result": "A2 (A2=1 to <3)"}, {"measurement": "CI50 growth inhibition", "setting": "DOHH-2; combination with Dexamethasone", "result": "S (S=0.01 to <0.5)"}, {"measurement": "CI50 inhibition", "setting": "DOHH-2; combination with Dexamethasone", "result": "S (S=0.01 to <0.5)"}, {"measurement": "Synergy Score growth inhibition", "setting": "DOHH-2; combination with Dexamethasone", "result": "A3 (A3=>3)"}, {"measurement": "Synergy Score inhibition", "setting": "DOHH-2; combination with Dexamethasone", "result": "A3 (A3=>3)"}, {"measurement": "CI50 growth inhibition", "setting": "DOHH-2; combination with LEE011", "result": "T (T=0.5 to <0.7)"}, {"measurement": "CI50 inhibition", "setting": "DOHH-2; combination with LEE011", "result": "U (U=0.7 to <1)"}, {"measurement": "Synergy Score growth inhibition", "setting": "DOHH-2; combination with LEE011", "result": "A3 (A3=>3)"}, {"measurement": "Synergy Score inhibition", "setting": "DOHH-2; combination with LEE011", "result": "A2 (A2=1 to <3)"}, {"measurement": "CI50 growth inhibition", "setting": "DOHH-2; combination with PCI-32765", "result": "S (S=0.01 to <0.5)"}, {"measurement": "CI50 inhibition", "setting": "DOHH-2; combination with PCI-32765", "result": "S (S=0.01 to <0.5)"}, {"measurement": "Synergy Score growth inhibition", "setting": "DOHH-2; combination with PCI-32765", "result": "A3 (A3=>3)"}, {"measurement": "Synergy Score inhibition", "setting": "DOHH-2; combination with PCI-32765", "result": "A3 (A3=>3)"}, {"measurement": "CI50 growth inhibition", "setting": "DOHH-2; combination with PD-0332991", "result": "U (U=0.7 to <1)"}, {"measurement": "CI50 inhibition", "setting": "DOHH-2; combination with PD-0332991", "result": "U (U=0.7 to <1)"}, {"measurement": "Synergy Score growth inhibition", "setting": "DOHH-2; combination with PD-0332991", "result": "A3 (A3=>3)"}, {"measurement": "Synergy Score inhibition", "setting": "DOHH-2; combination with PD-0332991", "result": "A2 (A2=1 to <3)"}, {"measurement": "CI50 growth inhibition", "setting": "SU-DHL-10-epst; combination with Dexamethasone", "result": "S (S=0.01 to <0.5)"}, {"measurement": "CI50 inhibition", "setting": "SU-DHL-10-epst; combination with Dexamethasone", "result": "S (S=0.01 to <0.5)"}, {"measurement": "Synergy Score growth inhibition", "setting": "SU-DHL-10-epst; combination with Dexamethasone", "result": "A3 (A3=>3)"}, {"measurement": "Synergy Score inhibition", "setting": "SU-DHL-10-epst; combination with Dexamethasone", "result": "A3 (A3=>3)"}, {"measurement": "CI50 growth inhibition", "setting": "SU-DHL-10-epst; combination with LEE011", "result": "S (S=0.01 to <0.5)"}, {"measurement": "CI50 inhibition", "setting": "SU-DHL-10-epst; combination with LEE011", "result": "S (S=0.01 to <0.5)"}, {"measurement": "Synergy Score growth inhibition", "setting": "SU-DHL-10-epst; combination with LEE011", "result": "A3 (A3=>3)"}, {"measurement": "Synergy Score inhibition", "setting": "SU-DHL-10-epst; combination with LEE011", "result": "A3 (A3=>3)"}, {"measurement": "CI50 growth inhibition", "setting": "SU-DHL-10-epst; combination with PCI-32765", "result": "S (S=0.01 to <0.5)"}, {"measurement": "CI50 inhibition", "setting": "SU-DHL-10-epst; combination with PCI-32765", "result": "S (S=0.01 to <0.5)"}, {"measurement": "Synergy Score growth inhibition", "setting": "SU-DHL-10-epst; combination with PCI-32765", "result": "A3 (A3=>3)"}, {"measurement": "Synergy Score inhibition", "setting": "SU-DHL-10-epst; combination with PCI-32765", "result": "A3 (A3=>3)"}, {"measurement": "CI50 growth inhibition", "setting": "SU-DHL-10-epst; combination with PD-0332991", "result": "S (S=0.01 to <0.5)"}, {"measurement": "CI50 inhibition", "setting": "SU-DHL-10-epst; combination with PD-0332991", "result": "S (S=0.01 to <0.5)"}, {"measurement": "Synergy Score growth inhibition", "setting": "SU-DHL-10-epst; combination with PD-0332991", "result": "A3 (A3=>3)"}, {"measurement": "Synergy Score inhibition", "setting": "SU-DHL-10-epst; combination with PD-0332991", "result": "A3 (A3=>3)"}, {"measurement": "CI50 growth inhibition", "setting": "Farage; combination with Dexamethasone", "result": "U (U=0.7 to <1)"}, {"measurement": "CI50 inhibition", "setting": "Farage; combination with Dexamethasone", "result": "S (S=0.01 to <0.5)"}, {"measurement": "Synergy Score growth inhibition", "setting": "Farage; combination with Dexamethasone", "result": "A3 (A3=>3)"}, {"measurement": "Synergy Score inhibition", "setting": "Farage; combination with Dexamethasone", "result": "A3 (A3=>3)"}, {"measurement": "CI50 growth inhibition", "setting": "Farage; combination with LEE011", "result": "W (W=≥1)"}, {"measurement": "CI50 inhibition", "setting": "Farage; combination with LEE011", "result": "W (W=≥1)"}, {"measurement": "Synergy Score growth inhibition", "setting": "Farage; combination with LEE011", "result": "A1 (A1=0.0001 to <1)"}, {"measurement": "Synergy Score inhibition", "setting": "Farage; combination with LEE011", "result": "A1 (A1=0.0001 to <1)"}, {"measurement": "CI50 growth inhibition", "setting": "Farage; combination with PCI-32765", "result": "S (S=0.01 to <0.5)"}, {"measurement": "CI50 inhibition", "setting": "Farage; combination with PCI-32765", "result": "S (S=0.01 to <0.5)"}, {"measurement": "Synergy Score growth inhibition", "setting": "Farage; combination with PCI-32765", "result": "A3 (A3=>3)"}, {"measurement": "Synergy Score inhibition", "setting": "Farage; combination with PCI-32765", "result": "A3 (A3=>3)"}, {"measurement": "CI50 growth inhibition", "setting": "Farage; combination with PD-0332991", "result": "T (T=0.5 to <0.7)"}, {"measurement": "CI50 inhibition", "setting": "Farage; combination with PD-0332991", "result": "S (S=0.01 to <0.5)"}, {"measurement": "Synergy Score growth inhibition", "setting": "Farage; combination with PD-0332991", "result": "A2 (A2=1 to <3)"}, {"measurement": "Synergy Score inhibition", "setting": "Farage; combination with PD-0332991", "result": "A2 (A2=1 to <3)"}, {"measurement": "CI50 growth inhibition", "setting": "RL; combination with Dexamethasone", "result": "T (T=0.5 to <0.7)"}, {"measurement": "CI50 inhibition", "setting": "RL; combination with Dexamethasone", "result": "T (T=0.5 to <0.7)"}, {"measurement": "Synergy Score growth inhibition", "setting": "RL; combination with Dexamethasone", "result": "A3 (A3=>3)"}, {"measurement": "Synergy Score inhibition", "setting": "RL; combination with Dexamethasone", "result": "A3 (A3=>3)"}, {"measurement": "CI50 growth inhibition", "setting": "RL; combination with LEE011", "result": "T (T=0.5 to <0.7)"}, {"measurement": "CI50 inhibition", "setting": "RL; combination with LEE011", "result": "U (U=0.7 to <1)"}, {"measurement": "Synergy Score growth inhibition", "setting": "RL; combination with LEE011", "result": "A2 (A2=1 to <3)"}, {"measurement": "Synergy Score inhibition", "setting": "RL; combination with LEE011", "result": "A1 (A1=0.0001 to <1)"}, {"measurement": "CI50 growth inhibition", "setting": "RL; combination with PCI-32765", "result": "S (S=0.01 to <0.5)"}, {"measurement": "CI50 inhibition", "setting": "RL; combination with PCI-32765", "result": "S (S=0.01 to <0.5)"}, {"measurement": "Synergy Score growth inhibition", "setting": "RL; combination with PCI-32765", "result": "A2 (A2=1 to <3)"}, {"measurement": "Synergy Score inhibition", "setting": "RL; combination with PCI-32765", "result": "A2 (A2=1 to <3)"}, {"measurement": "CI50 growth inhibition", "setting": "RL; combination with PD-0332991", "result": "S (S=0.01 to <0.5)"}, {"measurement": "CI50 inhibition", "setting": "RL; combination with PD-0332991", "result": "S (S=0.01 to <0.5)"}, {"measurement": "Synergy Score growth inhibition", "setting": "RL; combination with PD-0332991", "result": "A2 (A2=1 to <3)"}, {"measurement": "Synergy Score inhibition", "setting": "RL; combination with PD-0332991", "result": "A2 (A2=1 to <3)"}]}]}
